# In patent publication US20240358734A1, “DISCOVERY OF NOVEL TRPV1 CHANNEL BLOCKERS BY HIGH-THROUGHPUT SCREENING OF MARINE NATURAL PRODUCTS” (The Hong Kong University of Science and Technology, priority 2023, published 2024):
# “Also recorded” adds a separate entry of the source.
# Tests used:
# [1] = biological target: T1, human TRPV1 (Homo sapiens, UniProt Q8NER1); experiment: High-throughput FM4-64 dye-uptake assay in HEK293 cells transfected with hTRPV1-pIRES-eGFP; format: cell-based; conditions: for inhibitory effect on TRPV1 (relative n2/n1 ratio compared to vehicle control): screening, 5 μM FM4-64 dye and 100 μg/ml test compounds for 3 minutes, vs DMSO; for IC50: 1 μM capsaicin, 5 μM FM4-64, 3-minute incubation, cell-based system; for mean n2/n1 ratio: HEK293 cells transfected with human TRPV1, 96-well plate, groups incubated with drug, compared to capsaicin alone
# T1 construct: expressed in transfected cells; host or cells: HEK293 (HEK293T) cells
# T1 sequence (Q8NER1 whole entry): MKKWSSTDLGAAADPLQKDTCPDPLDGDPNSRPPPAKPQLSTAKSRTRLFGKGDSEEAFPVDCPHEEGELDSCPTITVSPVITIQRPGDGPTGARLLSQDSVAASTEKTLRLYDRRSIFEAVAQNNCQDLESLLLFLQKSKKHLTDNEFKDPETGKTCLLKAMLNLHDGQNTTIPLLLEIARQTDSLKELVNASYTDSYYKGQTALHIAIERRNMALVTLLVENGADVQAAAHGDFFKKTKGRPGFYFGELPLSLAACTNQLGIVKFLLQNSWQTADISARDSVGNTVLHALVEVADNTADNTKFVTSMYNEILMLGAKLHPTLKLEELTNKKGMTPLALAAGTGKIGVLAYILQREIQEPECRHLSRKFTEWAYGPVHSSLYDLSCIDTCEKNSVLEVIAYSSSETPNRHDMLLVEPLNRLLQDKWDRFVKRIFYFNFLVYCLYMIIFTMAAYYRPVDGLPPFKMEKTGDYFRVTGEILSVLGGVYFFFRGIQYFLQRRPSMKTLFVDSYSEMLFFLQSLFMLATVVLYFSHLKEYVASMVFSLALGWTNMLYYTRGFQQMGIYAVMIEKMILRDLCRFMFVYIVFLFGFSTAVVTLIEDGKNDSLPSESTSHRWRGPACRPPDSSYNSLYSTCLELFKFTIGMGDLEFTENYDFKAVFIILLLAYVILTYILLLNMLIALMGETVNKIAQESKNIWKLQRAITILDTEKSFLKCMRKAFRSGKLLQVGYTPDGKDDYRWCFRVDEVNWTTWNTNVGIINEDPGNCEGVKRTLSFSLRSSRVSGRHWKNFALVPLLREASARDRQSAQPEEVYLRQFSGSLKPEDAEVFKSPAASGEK
# Protocol: To screen potential modulators of TRPV1, a high-throughput screening system based on FM4-64 dye uptake was established using HEK293 cells transfected with hTRPV1-pIRES-eGFP and cultured in 96-well plates. The cells are incubation with 5 μM FM4-64 dye and 100 μg/ml test compounds for 3 minutes, washed, imaged using Zeiss Celldiscoverer 7, and analyzed using Image J (FIG. 2A). The number of GFP positive cells which is an indicator of the number of TRPV1 expressed cells, is calculated as n1 and the number of cells which are both GFP positive and dye uptake positive is calculated as n2 (FIG. 2B). The ratio (n2/n1) is a functional indicator of TRPV1 channel activity.
# The performance of cC and cF with capsaicin and capsazepine, with HEK293 cells transfected with human TRPV1 and cultured on a 96-well plate are compared by the n2/n1 ratio of the groups incubated with cC and cF to those incubated with capsaicin alone and capsazepine (FIG. 3B).
# The assay involves mixing 1 μM of capsaicin with varying concentrations of cC and 5 μM of FM4-64, and the mixture is added to each well for a 3-minute incubation.
# Transfected HEK293 cells in a 96-well plate were divided into 8 groups, each containing 12 wells. 10-11 wells of each group were set as experimental groups in which cells were incubated with compound mixtures. 1-2 wells of each group were set as control groups in which cells were incubated with control solution A or B. One group was operated simultaneously to reduce the difference between wells. Cells in DMEM were washed with CaCl2-HBSS buffer once to remove the remnant medium. Subsequently, cells were incubated with the compound mixture or control solution for 2-3 min at RT. After FM4-64 incubation, cells were washed with CaCl2-HBSS buffer thrice to remove FM4-64 residuals. A group of cells was subjected to Zeiss Celldiscoverer 7 for fluorescent imaging.
# To separate GFP and FM4-64 fluorescent dye, we used an LED light source at 470 nm to excite the GFP channel and light at 567 nm to excite the FM4-64 channel. 5× objective (Plan Apo, dry, autocorrect, NA 0.35), Orca camera (Orca Flash 4.0 v3), CO2 Module S1 incubation system, and Zenblue software were used for image recording. Each image comprises a GFP channel, FM4-64 channel, and bright field channel. And 4 non-overlapping images were taken for each well using the Tile function at Zenblue.
# All images were analysed with ImageJ software. The same threshold would be applied to all the images in the same experiment group to select GFP-positive and dye uptake-positive cells. Cell number was calculated by the “Analyze particle” function in ImageJ. GFP-positive and dye uptake-positive cells were selected using the “AND” function in the image calculator. The number of GFP-positive cells (TRPV1 expressed cells) would be calculated as N1, and the number of cells that are both GFP positive and dye uptake positive would be calculated as N2. The ratio of […] represents the percentage of TRPV1 expressed cells that uptake FM4-64 fluorescent dye and would be used to analyse TRPV1's function.
# [2] = biological target: T2, TRPV1 channel (hTRPV1) (Homo sapiens, UniProt Q8NER1); experiment: Excised inside-out patch-clamp of 3T3 cells transfected with hTRPV1-IRES-EGFP; format: cell-based; conditions: for inhibition of TRPV1 channels in patch-clamp macroscopic current: 10 nM capsaicin activation followed by 20 μM drug
# T2 construct: expressed in transfected cells; host or cells: 3T3 cells
# T2 sequence (Q8NER1 whole entry): as above
# Excerpt: A cell-based high-throughput drug screening method identifies potential TRPV1 inhibitors using the FM4-64 dye-uptake assay though the assay cannot conclusively distinguish the specific mechanism of blockage as numerous factors, such as other channels, pinocytosis, and drug-induced membrane potential alteration via pore-forming, can contribute to changes in FM4-64 dye uptake. A high-resolution patch clamp assays using an excised inside-out recording configuration allows investigation of the potential inhibitory effect of cC and cF on TRPV1, where changes in the patch-clamp macroscopic current before and after drug application indicates drug effectiveness.
# 3T3 cells were recorded using excised inside-out voltage clamp. Patch electrodes with a resistance of 4 MΩ±1.1 MΩ were pulled on a glass pipette puller (DMZ Zeitz-Puller). 3T3 cells were first transferred to a patch container to minimize the use of drugs and transfected with hTRPV1-IRES-EGFP. Immediately before assay, the cell medium was changed to PBS as well as the pipette medium. The dish was connected to the ground electrode via the salt bridge. Glass pipette filled with PBS was inserted into the patch electrode. A positive pressure of around 40 mmHg was applied to the pipette and soaked into the cell medium. The offset was tuned to near 0 pA when the holding potential was 0 mV. Pipette was moved to the cell, showing green-fluorescent and barely attached to the cell membrane. Then, removing the positive pressure in the pipette and changing the holding potential to −80 mV, forming a tight seal between the cell membrane and the pipette. The seal resistance should be >=1GQ. The sealed membrane was excised to form a patch in an inside-out configuration. The recording started with a positive holding potential.
# The patch was activated by 10 nM of capsaicin to activate TRPV1 channels fully. After full activation, 20 μM of drugs (cC) was applied to test for their ability of TRPV1 inhibition. […]
# Traces were collected with the pClamp10 software suite, and the patch-clamp macroscopic current was recorded. […]
# [3] = tested on: capsaicin-/TRPV1-induced pain sensation; experiment: Capsaicin-induced pain-sensation assay (paw-licking) in mice; format: in vivo, mice (C57B/6J); conditions: for mean licking time: drug mixed with capsaicin injected into right hind paw, 5 minutes observation
# Protocol: The total time spent paw-licking, a typical nociception behaviour in mice, was recorded as an indicator of TRPV1 activation and compared with a positive control group injected with capsaicin alone. The potency of the injected drugs is related to the reduction of licking time.
# The mice used were 4-6 weeks old C57B/6J provided by APCF in HKUST. All animal procedures were approved by the University Committee on Research Practices of the Hong Kong University of Science and Technology (Ethics protocol number: 2016074).
# Capsaicin-induced pain-sensation assays in mice were performed where 10 μL of capsaicin (300 μM) or solvent control was injected into the top of the hind paw by using a fine (30-G) needle; capsaicin was dissolved in 0.3% ethanol and 3% (v/v) dimethyl sulfoxide (DMSO). The mice were wrapped gently in the investigator's hand and maintained on their back, with their snout pointing toward the small finger of the investigator; in this position, the mice remained unagitated during the injection. Mouse behavior was recorded using a digital camera (GoPro5).
# The observation cage was made with the transparent large cage liner from APCF with bedding and food at the bottom. Mice were placed in the observation cage for 10 minutes at least 1 hour before the experiment was conducted to reduce the stress bought on by an unfamiliar environment. During the experiment, mice were captured by the left hand using the index finger and thumb to hold their neck. Then gradually pick up the mice and use the little finger to anchor its tail, such that its right hind paw will step on the ring finger or middle finger. Drugs were prepared in a 1.5 mL test tube. For the control group, 1 mM stock Capsaicin in DMSO is diluted to 100 μM using PBS. For the testing group, drugs originally dissolved in DMSO were diluted to the desired concentration in addition to capsaicin.
# The injection was performed by shaking and spinning the drug-containing test tube for an even concentration of drug. A BD Ultra-fine 6 mm needle was used to suck out the 10 μL of drug from the needle. After removing excess air bubbles, 10 μL of the drug was injected into the captured mice's back of the right hind paw. The needle was removed slowly to inhibit blood and drug from leaking from the wound. After injection, mice were placed in the observation cage for 5 minutes to record the pain behavior. Video was filmed using a camera with the configuration of HD 30 fps. The environmental noise, light, and temperature are constant throughout the record. The mice's behavior was identified by experienced individuals who mapped pain behavior in seconds throughout the 5 minutes.
Compound,inhibitory effect on TRPV1 (relative n2/n1 ratio compared to vehicle control) [1],IC50 [1] [µM],mean n2/n1 ratio [1],inhibition of TRPV1 channels in patch-clamp macroscopic current [2],mean licking time [3] [s],further results
"COc1c2c(c(O)c3c(=O)c4cccc(O[C@@H]5OC(C(=O)O)=C[C@H](O)[C@H]5O)c4oc13)-c1c(cc(CC(C)=O)c(C(=O)O)c1O)CC2 [cB, chrexanthomycin B]",inhibitory effects on TRPV1,–,–,–,–,–
"C[C@@]1(O)Cc2cc3c(c(O)c2C(=O)O1)-c1c(c(O)c(O)c2c(=O)c4cccc(O[C@@H]5OC(C(=O)O)=C[C@H](O)[C@H]5O)c4oc12)CC3 [cF, chrexanthomycin F]",inhibitory effects on TRPV1,> 2,0.068,effectively inhibit TRPV1 channels,–,–
"CC(=O)Cc1cc2c(c(O)c1C(=O)O)-c1c(c(O)c3oc4c(O[C@@H]5OC(C(=O)O)=C[C@H](O)[C@H]5O)cccc4c(=O)c3c1O)CC2 [cA, chrexanthomycin A]",inhibitory effects on TRPV1,–,–,–,–,–
"COc1cc(CNC(=O)CCCC/C=C/C(C)C)ccc1O [capsaicin, reference compound]",–,–,–,–,–,"mean n2/n1 ratio, capsaicin group ([1]; capsaicin alone, HEK293 cells transfected with human TRPV1): 0.254; mean licking time, capsaicin alone group ([3]; capsaicin alone injected into right hind paw (positive control)): over 50 seconds"
chrexanthomycin C [cC],inhibitory effects on TRPV1; also recorded: lowest relative n2/n1 ratio,0.75 to 1,0.0307,effectively inhibit TRPV1 channels,19,"average relative macroscopic current after drug addition ([2]; fully capsaicin-activated state (10 nM capsaicin), 20 μM drug, inside-out patch): 0.285; efficacy in blocking capsaicin-induced pain sensation relative to capsazepine ([3]; mouse model, ANOVA with post hoc test): as effective as capsazepine"
"Oc1cc2c(cc1O)CN(C(=S)NCCc1ccc(Cl)cc1)CCC2 [capsazepine, reference compound]",–,–,0.0667,–,18,–
